Positions of bridges follow the written chain, without caps; N, C: chain ends. Non-standard residues stand in square brackets, D forms with d. Residues, ends and D or L forms follow the SMILES beside them. NMePhe(4-CH2NHiPr) = CN[C@@H](Cc1ccc(CNC(C)C)cc1)C(=O)O; Phe(4-CH2NHiPr) = CC(C)NCc1ccc(C[C@H](N)C(=O)O)cc1; d2Nal = N[C@H](Cc1ccc2ccccc2c1)C(=O)O; NMeS = CN[C@@H](CO)C(=O)O
Key:
[1] = target: Somatostatin receptor type 1 (Homo sapiens, UniProt P30872); test: Inhibition of [Leu8,D-Trp22,125I-Tyr25]SRIF-28 binding to human somatostatin receptor type 1
[2] = target: Somatostatin receptor type 2 (Homo sapiens, UniProt P30874); test: Inhibition of [Leu8,D-Trp22,125I-Tyr25]SRIF-28 binding to human somatostatin receptor type 2
[3] = target: Somatostatin receptor type 3 (Homo sapiens, UniProt P32745); test: Inhibition of [Leu8,D-Trp22,125I-Tyr25]SRIF-28 binding to human somatostatin receptor type 3
[4] = target: Somatostatin receptor type 4 (Homo sapiens, UniProt P31391); test: Inhibition of [Leu8,D-Trp22,125I-Tyr25]SRIF-28 binding to human somatostatin receptor type 4
[5] = target: Somatostatin receptor type 5 (Homo sapiens, UniProt P35346); test: Inhibition of [Leu8,D-Trp22,125I-Tyr25]SRIF-28 binding to human somatostatin receptor type 5
Somatostatin receptor type 5, sequence (P35346 whole entry): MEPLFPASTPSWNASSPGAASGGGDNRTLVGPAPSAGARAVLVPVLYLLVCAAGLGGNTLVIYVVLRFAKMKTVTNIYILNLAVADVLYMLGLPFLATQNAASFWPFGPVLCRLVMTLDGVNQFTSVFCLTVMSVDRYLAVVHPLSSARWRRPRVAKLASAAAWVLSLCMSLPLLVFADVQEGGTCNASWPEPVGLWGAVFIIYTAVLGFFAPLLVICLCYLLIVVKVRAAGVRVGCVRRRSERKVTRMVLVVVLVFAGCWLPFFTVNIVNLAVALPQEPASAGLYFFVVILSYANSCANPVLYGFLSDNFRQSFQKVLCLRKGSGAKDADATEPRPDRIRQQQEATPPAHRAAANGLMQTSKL

Somatostatin receptor type 2, sequence (P30874 whole entry): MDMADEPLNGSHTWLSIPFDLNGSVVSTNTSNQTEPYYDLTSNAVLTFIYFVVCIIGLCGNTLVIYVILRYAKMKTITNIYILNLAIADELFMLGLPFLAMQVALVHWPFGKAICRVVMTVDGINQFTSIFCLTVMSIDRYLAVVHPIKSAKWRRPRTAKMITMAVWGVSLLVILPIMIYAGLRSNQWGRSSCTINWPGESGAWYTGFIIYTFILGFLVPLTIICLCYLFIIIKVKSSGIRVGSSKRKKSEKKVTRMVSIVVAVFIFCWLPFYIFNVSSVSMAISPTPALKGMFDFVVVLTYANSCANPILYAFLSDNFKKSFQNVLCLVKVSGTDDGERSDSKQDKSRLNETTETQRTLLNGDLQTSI
Somatostatin receptor type 4, sequence (P31391 whole entry): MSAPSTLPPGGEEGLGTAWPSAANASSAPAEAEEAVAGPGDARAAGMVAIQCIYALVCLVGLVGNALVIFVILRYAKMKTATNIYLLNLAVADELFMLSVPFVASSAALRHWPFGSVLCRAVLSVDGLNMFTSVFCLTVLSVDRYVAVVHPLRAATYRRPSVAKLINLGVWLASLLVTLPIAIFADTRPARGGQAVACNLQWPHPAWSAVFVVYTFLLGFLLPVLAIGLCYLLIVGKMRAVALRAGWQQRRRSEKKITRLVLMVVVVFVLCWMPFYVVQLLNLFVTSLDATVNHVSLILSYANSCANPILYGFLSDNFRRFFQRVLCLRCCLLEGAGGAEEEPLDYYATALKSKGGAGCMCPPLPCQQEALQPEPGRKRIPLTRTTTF
Somatostatin receptor type 3, sequence (P32745 whole entry): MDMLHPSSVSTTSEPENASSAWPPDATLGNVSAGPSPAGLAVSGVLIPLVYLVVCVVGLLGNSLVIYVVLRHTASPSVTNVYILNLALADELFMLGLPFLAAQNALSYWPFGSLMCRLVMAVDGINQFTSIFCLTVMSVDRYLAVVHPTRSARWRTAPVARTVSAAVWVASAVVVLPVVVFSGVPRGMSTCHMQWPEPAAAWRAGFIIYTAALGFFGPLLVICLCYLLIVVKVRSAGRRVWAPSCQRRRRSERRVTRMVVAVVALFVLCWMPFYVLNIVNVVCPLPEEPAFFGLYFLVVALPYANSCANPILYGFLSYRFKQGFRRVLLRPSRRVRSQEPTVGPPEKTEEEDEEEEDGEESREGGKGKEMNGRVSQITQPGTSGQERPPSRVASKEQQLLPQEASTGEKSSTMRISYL
Somatostatin receptor type 1, sequence (P30872 whole entry): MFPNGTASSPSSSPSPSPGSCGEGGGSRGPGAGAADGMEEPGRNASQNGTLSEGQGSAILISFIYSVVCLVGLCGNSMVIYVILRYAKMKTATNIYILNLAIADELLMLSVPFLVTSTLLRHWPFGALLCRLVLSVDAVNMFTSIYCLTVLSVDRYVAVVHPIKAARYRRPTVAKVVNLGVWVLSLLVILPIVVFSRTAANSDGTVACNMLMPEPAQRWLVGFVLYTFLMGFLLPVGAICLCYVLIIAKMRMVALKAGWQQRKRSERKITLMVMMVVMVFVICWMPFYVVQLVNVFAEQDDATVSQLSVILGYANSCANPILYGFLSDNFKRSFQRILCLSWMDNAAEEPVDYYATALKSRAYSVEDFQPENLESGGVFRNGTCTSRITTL

SMILES	IC50 [1] [nM]	IC50 [2] [nM]	IC50 [3] [nM]	IC50 [4] [nM]	IC50 [5] [nM]
CC(C)NCc1ccc(C[C@@H]2NC(=O)[C@H](N(C)C(=O)c3ccc4ccccc4c3)NC(=O)[C@H](Cc3ccccc3)NC(=O)[C@H](Cc3ccccc3)NC(=O)[C@H](CCCCN)NC(=O)[C@@H](N)CSSC[C@@H](C(=O)O)NC(=O)[C@H](CO)NC(=O)[C@H]([C@@H](C)O)NC(=O)[C@H](Cc3ccc(O)c(I)c3)NC(=O)[C@H]([C@@H](C)O)NC2=O)cc1	6.7	> 1000	536	435	> 1000
CC(C)NCc1ccc(C[C@@H]2NC(=O)[C@@H](Cc3ccc4ccccc4c3)NC(=O)[C@H](Cc3ccccc3)NC(=O)[C@H](Cc3ccccc3)N(C)C(=O)[C@H](CCCCN)NC(=O)[C@@H](N)CSSC[C@@H](C(=O)O)NC(=O)[C@H](CO)NC(=O)[C@H]([C@@H](C)O)NC(=O)[C@H](Cc3ccccc3)NC(=O)[C@H]([C@@H](C)O)NC2=O)cc1	> 1000	> 1000	> 1000	> 1000	> 1000
CC(C)NCc1ccc(C[C@@H]2NC(=O)[C@H](Cc3c[nH]c4ccccc34)NC(=O)[C@H](Cc3ccccc3)NC(=O)[C@H](Cc3ccccc3)NC(=O)[C@H](CCCCN)NC(=O)[C@@H](N)CSSC[C@@H](C(=O)O)NC(=O)[C@H](CO)NC(=O)[C@H]([C@@H](C)O)NC(=O)[C@H](Cc3ccc(O)cc3)NC(=O)[C@H]([C@@H](C)O)NC2=O)cc1 (H-CKFFW[Phe(4-CH2NHiPr)]TYTSC-OH; disulfide 1-11)	15	> 1000	> 1000	384	> 1000
CC(C)NCc1ccc(C[C@@H]2NC(=O)[C@@H](Cc3ccc4ccccc4c3)N(C)C(=O)[C@H](Cc3ccccc3)NC(=O)[C@H](Cc3ccccc3)NC(=O)[C@H](CCCCN)NC(=O)[C@@H](N)CSSC[C@@H](C(=O)O)NC(=O)[C@H](CO)NC(=O)[C@H]([C@@H](C)O)NC(=O)[C@H](Cc3ccccc3)NC(=O)[C@H]([C@@H](C)O)NC2=O)cc1	325	> 1000	> 1000	> 1000	> 1000
CC(C)NCc1ccc(C[C@@H]2NC(=O)[C@@H](Cc3ccc4ccccc4c3)NC(=O)[C@H](Cc3ccccc3)NC(=O)[C@H](Cc3ccccc3)NC(=O)[C@H](CCCCN)NC(=O)[C@@H](N)CSSC[C@@H](C(=O)O)N(C)C(=O)[C@H](CO)NC(=O)[C@H]([C@@H](C)O)NC(=O)[C@H](Cc3ccccc3)NC(=O)[C@H]([C@@H](C)O)NC2=O)cc1	260	> 1000	> 1000	> 1000	> 1000
CC(C)NCc1ccc(C[C@@H]2NC(=O)[C@@H](Cc3ccc4ccccc4c3)NC(=O)[C@H](Cc3ccccc3)NC(=O)[C@H](Cc3ccccc3)NC(=O)[C@H](CCCCN)NC(=O)[C@@H](N)CSSC[C@@H](C(=O)O)NC(=O)[C@H](CO)NC(=O)[C@H]([C@@H](C)O)NC(=O)[C@H](Cc3ccccc3)N(C)C(=O)[C@H]([C@@H](C)O)NC2=O)cc1	583	> 1000	> 1000	> 1000	> 1000
CC(C)NCc1ccc(C[C@@H]2NC(=O)[C@@H](Cc3c[nH]c4ccccc34)NC(=O)[C@H](Cc3ccccc3)NC(=O)[C@H](Cc3ccccc3)NC(=O)[C@H](CCCCN)NC(=O)[C@@H](N)CSSC[C@@H](C(=O)O)NC(=O)[C@H](CO)N(C)C(=O)[C@H]([C@@H](C)O)NC(=O)[C@H](Cc3ccccc3)NC(=O)[C@H]([C@@H](C)O)NC2=O)cc1 (H-CKFF[dW][Phe(4-CH2NHiPr)]TFT[NMeS]C-OH; disulfide 1-11)	23	> 1000	> 1000	–	–
CC(C)NCc1ccc(C[C@@H]2NC(=O)[C@@H](Cc3ccc4ccccc4c3)NC(=O)[C@H](Cc3ccccc3)NC(=O)[C@H](Cc3ccccc3)NC(=O)[C@H](CCCCN)NC(=O)[C@@H](N)CSSC[C@@H](C(=O)N[C@@H](CCCCN)C(=O)N[C@@H](CCCCN)C(=O)N[C@@H](CCCCN)C(=O)O)N(C)C(=O)[C@H](CO)NC(=O)[C@H]([C@@H](C)O)NC(=O)[C@H](Cc3ccccc3)NC(=O)[C@H]([C@@H](C)O)NC2=O)cc1	144	> 1000	620	> 1000	> 1000
C[C@@H](O)[C@@H]1NC(=O)[C@H](Cc2ccc(O)cc2)NC(=O)[C@H]([C@@H](C)O)NC(=O)[C@H](CCCCN)NC(=O)[C@@H](Cc2c[nH]c3ccccc23)NC(=O)[C@H](Cc2ccccc2)NC(=O)[C@H](Cc2ccccc2)NC(=O)[C@H](CCCCN)NC(=O)[C@@H](N)CSSC[C@@H](C(=O)O)NC(=O)[C@H](CO)NC1=O	10	16	8	0.5	4.8
CC(C)NCc1ccc(C[C@H]2C(=O)N[C@@H]([C@@H](C)O)C(=O)N[C@@H](Cc3ccc(O)cc3)C(=O)N[C@@H]([C@@H](C)O)C(=O)N[C@@H](CO)C(=O)N[C@H](C(=O)O)CSSC[C@H](N)C(=O)N[C@@H](CCCCN)C(=O)N[C@@H](Cc3ccccc3)C(=O)N[C@@H](Cc3ccccc3)C(=O)N[C@H](Cc3ccc4ccccc4c3)C(=O)N2C)cc1 (H-CKFF[d2Nal][NMePhe(4-CH2NHiPr)]TYTSC-OH; disulfide 1-11)	25	> 1000	–	–	> 1000
CC(C)NCc1ccc(C[C@@H]2NC(=O)[C@@H](Cc3ccc4ccccc4c3)NC(=O)[C@H](Cc3ccccc3)NC(=O)[C@H](Cc3ccccc3)NC(=O)[C@H](CCCCN)NC(=O)[C@@H](N)CSSC[C@@H](C(=O)O)NC(=O)[C@H](CO)N(C)C(=O)[C@H]([C@@H](C)O)NC(=O)[C@H](Cc3ccccc3)NC(=O)[C@H]([C@@H](C)O)NC2=O)cc1	71	> 1000	> 1000	> 1000	> 1000
CC(C)NCc1ccc(C[C@@H]2NC(=O)[C@@H](Cc3c[nH]c4ccccc34)NC(=O)[C@H](Cc3ccccc3)NC(=O)[C@H](Cc3ccccc3)NC(=O)[C@H](CCCCN)NC(=O)[C@@H](N)CSSC[C@@H](C(=O)O)NC(=O)[C@H](CO)NC(=O)[C@H]([C@@H](C)O)NC(=O)[C@H](Cc3ccccc3)NC(=O)[C@H]([C@@H](C)O)NC2=O)cc1 (H-CKFF[dW][Phe(4-CH2NHiPr)]TFTSC-OH; disulfide 1-11)	33	–	–	–	–
CC(C)NCc1ccc(C[C@H]2C(=O)N[C@@H]([C@@H](C)O)C(=O)N[C@@H](Cc3ccc(O)cc3)C(=O)N[C@@H]([C@@H](C)O)C(=O)N[C@@H](CO)C(=O)N[C@H](C(=O)O)CSSC[C@H](N)C(=O)N[C@@H](CCCCN)C(=O)N[C@@H](Cc3ccccc3)C(=O)N[C@@H](Cc3ccccc3)C(=O)N[C@H](Cc3c[nH]c4ccccc34)C(=O)N2C)cc1 (H-CKFF[dW][NMePhe(4-CH2NHiPr)]TYTSC-OH; disulfide 1-11)	–	> 1000	–	–	> 1000

Now from value to compound:

IC50 [1] [nM]	IC50 [2] [nM]	IC50 [3] [nM]	IC50 [4] [nM]	IC50 [5] [nM]	SMILES
0.98	–	–	–	–	C[C@H](N)C(=O)NCC(=O)N[C@H]1CSSC[C@@H](C(=O)O)NC(=O)[C@H](CO)NC(=O)[C@H]([C@@H](C)O)NC(=O)[C@H](Cc2ccccc2)NC(=O)[C@H]([C@@H](C)O)NC(=O)[C@H](CCCCN)NC(=O)[C@@H](Cc2c[nH]c3ccccc23)NC(=O)[C@H](Cc2ccccc2)NC(=O)[C@H](Cc2ccccc2)NC(=O)[C@H](CCCCN)NC1=O (H-AGCKFF[dW]KTFTSC-OH; disulfide 3-13)
> 1000	–	900	> 1000	–	CC(C)NCc1ccc(C[C@@H]2NC(=O)[C@@H](N(C)C(=O)c3ccc4ccccc4c3)NC(=O)[C@H](Cc3ccccc3)NC(=O)[C@H](Cc3ccccc3)NC(=O)[C@H](CCCCN)NC(=O)[C@@H](N)CSSC[C@@H](C(=O)O)NC(=O)[C@H](CO)NC(=O)[C@H]([C@@H](C)O)NC(=O)[C@H](Cc3ccc(O)cc3)NC(=O)[C@H]([C@@H](C)O)NC2=O)cc1
248	–	–	–	> 1000	CC(C)NCc1ccc(C[C@@H]2NC(=O)[C@@H](Cc3ccc4ccccc4c3)NC(=O)[C@H](Cc3ccccc3)NC(=O)[C@H](Cc3ccccc3)NC(=O)[C@H](CCCCN)NC(=O)[C@@H](N)CSSC[C@@H](C(=O)O)NC(=O)[C@H](CO)NC(=O)[C@H]([C@@H](C)O)NC(=O)[C@H](Cc3ccccc3)NC(=O)[C@H]([C@@H](C)O)NC2=O)cc1 (H-CKFF[d2Nal][Phe(4-CH2NHiPr)]TFTSC-OH; disulfide 1-11)
151	> 1000	> 1000	> 1000	> 1000	CC(C)NCc1ccc(C[C@@H]2NC(=O)[C@@H](Cc3c[nH]c4ccccc34)NC(=O)[C@H](Cc3ccccc3)NC(=O)[C@H](Cc3ccccc3)NC(=O)[C@H](CCCCN)NC(=O)[C@@H](N)CSSC[C@@H](C(=O)O)N(C)C(=O)[C@H](CO)NC(=O)[C@H]([C@@H](C)O)NC(=O)[C@H](Cc3ccccc3)NC(=O)[C@H]([C@@H](C)O)NC2=O)cc1
16	> 1000	–	245	–	CC(C)NCc1ccc(C[C@H]2C(=O)N[C@@H]([C@@H](C)O)C(=O)N[C@@H](Cc3ccccc3)C(=O)N[C@@H]([C@@H](C)O)C(=O)N[C@@H](CO)C(=O)N[C@H](C(=O)O)CSSC[C@H](NC(=O)[C@@H](N)Cc3ccc(O)cc3)C(=O)N[C@@H](CCCCN)C(=O)N[C@@H](Cc3ccccc3)C(=O)N[C@@H](Cc3ccccc3)C(=O)N[C@H](Cc3c[nH]c4ccccc34)C(=O)N2C)cc1 (H-YCKFF[dW][NMePhe(4-CH2NHiPr)]TFTSC-OH; disulfide 2-12)
69	–	–	–	> 1000	CC(C)NCc1ccc(C[C@H]2C(=O)N[C@@H]([C@@H](C)O)C(=O)N[C@@H](Cc3ccccc3)C(=O)N[C@@H]([C@@H](C)O)C(=O)N[C@@H](CO)C(=O)N[C@H](C(=O)O)CSSC[C@H](N)C(=O)N[C@@H](CCCCN)C(=O)N[C@@H](Cc3ccccc3)C(=O)N[C@@H](Cc3ccccc3)C(=O)N[C@H](Cc3ccc4ccccc4c3)C(=O)N2C)cc1 (H-CKFF[d2Nal][NMePhe(4-CH2NHiPr)]TFTSC-OH; disulfide 1-11)

— ChEMBL document CHEMBL1145176, “Somatostatin receptor 1 selective analogues: 2. N(alpha)-Methylated scan” (J Med Chem, 2005)
